Literature values as cited in US20220054558A1, “COMPOSITIONS COMPRISING BACTERIAL STRAINS” (4D Pharma Research Limited, priority 2018, published 2022).

System: C. difficile
Settings: reference [19]

CCCCC(=O)O [Valeric acid]
viability of C. difficile: reduce the viability
